Entries after “also recorded” stand apart in the source; their conditions may differ.
Key:
[1] = Assay 1: stability (influencing factor tests) for Crystal Form I; HPLC content; assay type: physicochemical
Experimental: Assay 1: Stability for Crystal Form I of the Present Compound
Crystal Form I of the compound represented by formula (1): Crystal Form I was prepared according to Example 2.
(§1) (1) Crystal Form I of the compound represented by formula (1) was laid on a dry and clean watch glass, and kept at 60° C. for 10 days. Samples were taken respectively on Day 5 and Day 10. The contents of the relevant substance and the compound represented by formula (1) in the sample were measured, and compared with the contents of those in the sample taken on Day 0;
(§2) (2) Crystal Form I of the compound represented by formula (1) was packaged and sealed with a low-density polyethylene bag for pharmaceutical use in the inner layer and with a polyester/aluminum/polyethylene composite film for pharmaceutical package in the outer layer, and kept at 60° C. for 10 days. Samples were taken respectively on Day 5 and Day 10. The contents of the relevant substance and the compound represented by formula (1) in the sample were measured, and compared with the contents of those in the sample taken on Day 0.
as §1, with “High humidity test: Crystal” for “(1) Crystal”, “at 25°” for “at 60°”, “C. under a relative humidity of 90%±5%” for “C.”, “Day 0.” for “Day 0;”
as §1, with “Photostability test: Crystal” for “(1) Crystal”, “at an illuminance of 4500 L×±500 L× in an illumination box” for “at 60° C.”, “Day 0.” for “Day 0;”
(§3) The content of the compound represented by formula (1) was measured by using an external standard method in accordance with the High Performance Liquid Chromatography in Chinese Pharmacopoeia, Appendix V D, Edition 2010.
(§4) The content of the relevant substance was measured by using an area normalization method in accordance with the High Performance Liquid Chromatography in Chinese Pharmacopoeia, Appendix V D, Edition 2010.

[2] = test system: high salt induced Dahl salt sensitive (Dahl/SS) rats; assay: Assay 3: depressurization effect (SBP, tail-cuff) in hypertension and kidney injury Dahl/ss rat model; assay type: in vivo; conditions: for SBP Before Administration (mean ± SD): baseline, solid dispersion with PVPK30 1:8, oral gavage twice a day; for SBP After Administration (on 41th day) (mean ± SD): oral gavage twice a day, 4% NaCl chow, solid dispersion with PVPK30 1:8
Experimental: (§5) Organ protection and depressurization effect of Crystal Form I of the present invention on the high salt induced Dahl salt sensitive (Dahl/SS) rats
(§6) The solid dispersion of Crystal Form I of the present invention (Crystal Form I of the present invention: PVPK30=1:8 (w/w)): the solid dispersion of Crystal Form I of the present invention was formulated with a suitable amount of sterile water for injection into suspensions having concentrations of 0.03, 0.10, 0.30, and 1.00 mg/mL. The suspension was prepared before use every day.
(§7) Experiment animals: male Dahl/ss rats of SPF (specific pathogen free)-grade, 8-9 weeks, purchased via Vital River Laboratories from HARLAN LABORATORIES, INC. After one week normal quarantine, rats in good sign and condition were used in the experiment.
(§8) Dahl/ss rats were randomly divided into six groups according to the blood pressure measurement before administration:
(§9) The in vivo pharmacodynamic activity of Crystal Form I of the present invention was evaluated by the hypertension and kidney injury Dahl/ss rat's model.
(§10) One week before the experiment, the blood pressures of rats were monitored twice by the tail-cuff blood pressure measurement so that the rats could accommodate the blood pressure monitoring operation. The blood pressures of rats were monitored once before starting the experiment and used as the basic blood pressures before administration. The rats were randomly divided into groups according to the measured blood pressures before administration. The model was established by feeding the rats with a high salt chow (AIN-93G experiment animal feed containing 4% NaCl) for 42 days, in which the rats were freely accessible to food and water. And rats in control group were fed with a low-sodium chow.
(§11) The rats in the treatment groups with Crystal Form I of the present invention were respectively administrated with Crystal Form I of the present invention in a dosage of 0.3, 1, 3, and 10 mg/kg/day. Rats in treatment groups were dosed orally via gavage twice a day by 5 mL/kg. The rats in the model group and in the normal control were administrated with the same volume of sterile water for injection.
Blood pressure (systolic blood pressure, abbreviated as SBP) measurement: The blood pressure was measured once each week for six weeks. The blood pressure changes were analyzed for each group.

[3] = test system: high salt induced Dahl salt sensitive (Dahl/SS) rats; assay: Assay 3: pathological examinations for kidney and heart (organ protection) in Dahl/ss rat model; assay type: in vivo; conditions: for left ventricular wall thickness (mean ± SD) / Kidney injury scores (Mean ± SD): 42 days high salt chow; for Kidney injury scores (Mean ± SD): HE stain
Experimental: as §5, §6, §7, §8, §9, §10, §11
The pathological examinations for kidney and heart: After the experiment, the rats were killed in a painless manner. The heart and the bilateral kidneys were collected for histopathology analysis. Kidney injury was scored and semi-quantitatively analyzed based on hematoxylin-eosin (HE) stain. The heart injury was analyzed by the measurement of left ventricular wall thickness.

[4] = Assay 2: stability (influencing factor tests) for Crystal Form II; HPLC content; assay type: physicochemical
Experimental: Stability for Crystal Form II of the present compound
Crystal Form II of the compound represented by formula (1): Crystal Form II was prepared according to Example 4.
as §1, with “II” for “I”, “Sample was” for “Samples were”, “taken” for “taken respectively”, “on” for “on Day 5 and”
as §2, with “II” for “I”, “Sample was” for “Samples were”, “taken” for “taken respectively”, “on” for “on Day 5 and”
(§12) High humidity test: Crystal Form II of the compound represented by formula (1) was laid on a dry and clean watch glass, and kept at 25° C. under a relative humidity of 90%±5% for 10 days. Sample was taken respectively on Day 10. The contents of the relevant substance and the compound represented by formula (1) in the sample were measured, and compared with the contents of those in the sample taken on Day 0.
as §12, with “Photostability” for “High humidity”, “an illuminance” for “25° C. under a relative humidity”, “5000 L×±500 L× in an illumination box” for “90%±5%”, “taken” for “taken respectively”
as §3, §4

[5] = 60° C.-(1), open watch glass, Day 5
[6] = 60° C.-(1), open watch glass, Day 10
[7] = 60° C.-(2), packaged and sealed, Day 5
[8] = 60° C.-(2), packaged and sealed, Day 10
[9] = high temperature, high humidity, illumination

Question: For N#Cc1ccc(N2N=C3c4ccc(C(=O)N5CCC(O)CC5)nc4CC[C@@H]3[C@@H]2C2CCCC2)cc1Cl [Crystal Form I, 2-chloro-4-[(3S,3aR)-3-cyclopentyl-7-(4-hydroxypiperidin-1-carbonyl)-3,3a,4,5-tetrahydro-2H-pyrazolo[3,4-f]quinolin-2-yl]benzonitrile], which “Stability compared with the amorphous form” value [1] is on record?
Answer: superior to the amorphous form in the stability

Question: And the “Content of the compound represented by formula (1)” value (“Content of the compound represented” for short) [1, 5]?
Answer: 98.9%

Question: And the “Content of the relevant substance” value [1, 5]?
Answer: 0.82%

Question: And the “Content of the compound represented” value [1, 6]?
Answer: 98.1%

Question: What about the “Content of the relevant substance” value [1, 6] of the same compound?
Answer: 0.97%

Question: What about the “Content of the compound represented” value [1, 7] of the same compound?
Answer: 99.7%

Question: And the “Content of the relevant substance” value [1, 7]?
Answer: 0.58%

Question: What about the “Content of the compound represented” value [1, 8] of the same compound?
Answer: 99.0%

Question: And the “Content of the relevant substance” value [1, 8]?
Answer: 0.60%

Question: And the “Content of the compound represented” value ([1]; 4500 Lx ± 500 Lx, Day 5)?
Answer: 98.1%

Question: What about the “Content of the relevant substance” value ([1]; 4500 Lx ± 500 Lx, Day 5) of the same compound?
Answer: 1.2%

Question: And the “Content of the compound represented” value ([1]; 4500 Lx ± 500 Lx, Day 10)?
Answer: 97.0%

Question: And the “Content of the relevant substance” value ([1]; 4500 Lx ± 500 Lx, Day 10)?
Answer: 2.0%

Question: What about the “Content of the compound represented” value ([1]; Day 0) of the same compound?
Answer: 99.5%

Question: And the “Content of the relevant substance” value ([1]; Day 0)?
Answer: 0.54%

Question: And the “Content of the compound represented” value ([1]; RH90% ± 5%, 25° C., Day 5)?
Answer: 99.1%

Question: And the “Content of the relevant substance” value ([1]; RH90% ± 5%, 25° C., Day 5)?
Answer: 0.56%

Question: What about the “Content of the compound represented” value ([1]; RH90% ± 5%, 25° C., Day 10) of the same compound?
Answer: 99.0%

Question: What about the “Content of the relevant substance” value ([1]; RH90% ± 5%, 25° C., Day 10) of the same compound?
Answer: 0.56%

Question: And the “Change of contents of the relevant substance and the compound represented by formula (1)” value [1, 9]?
Answer: substantially did not change

Question: And the “SBP Before Administration (mean ± SD)” value ([2]; 0.3 mg/kg/day group)?
Answer: 140.8 ± 9.6 mmHg

Question: What about the “SBP After Administration (on 41th day) (mean ± SD)” value ([2]; 0.3 mg/kg/day) of the same compound?
Answer: 166.5 ± 10.2 mmHg

Question: What about the “SBP Before Administration (mean ± SD)” value ([2]; 1 mg/kg/day group) of the same compound?
Answer: 140.9 ± 9.5 mmHg

Question: What about the “SBP After Administration (on 41th day) (mean ± SD)” value ([2]; 1 mg/kg/day) of the same compound?
Answer: 148.7 ± 9.6 mmHg

Question: And the “SBP Before Administration (mean ± SD)” value ([2]; 3 mg/kg/day group)?
Answer: 141.0 ± 9.4 mmHg

Question: What about the “SBP After Administration (on 41th day) (mean ± SD)” value ([2]; 3 mg/kg/day) of the same compound?
Answer: 141.6 ± 8.0 mmHg

Question: And the “SBP Before Administration (mean ± SD)” value ([2]; 10 mg/kg/day group)?
Answer: 141.2 ± 9.2 mmHg

Question: And the “SBP After Administration (on 41th day) (mean ± SD)” value ([2]; 10 mg/kg/day)?
Answer: 141.2 ± 9.6 mmHg

Question: And the Depressurization effect ([2]; 0.3-10 mg/kg/day oral, high salt Dahl/ss rats, listed as Crystal Form I of the present invention)?
Answer: significant depressurization effect; also recorded: remarkable depressurization effect

Question: And the “left ventricular wall thickness (mean ± SD)” value ([3]; 0.3 mg/kg/day oral)?
Answer: 0.392 ± 0.024 cm

Question: What about the “Kidney injury scores (Mean ± SD)” value ([3]; 0.3 mg/kg/day oral) of the same compound?
Answer: 2.02 ± 0.268

Question: And the “left ventricular wall thickness (mean ± SD)” value ([3]; 1 mg/kg/day oral)?
Answer: 0.383 ± 0.017 cm

Question: What about the “Kidney injury scores (Mean ± SD)” value ([3]; 1 mg/kg/day oral) of the same compound?
Answer: 1.25 ± 0.428

Question: And the “left ventricular wall thickness (mean ± SD)” value ([3]; 3 mg/kg/day oral)?
Answer: 0.381 ± 0.026 cm

Question: What about the “Kidney injury scores (Mean ± SD)” value ([3]; 3 mg/kg/day oral) of the same compound?
Answer: 1.84 ± 0.596

Question: What about the “left ventricular wall thickness (mean ± SD)” value ([3]; 10 mg/kg/day oral) of the same compound?
Answer: 0.383 ± 0.019 cm

Question: What about the “Kidney injury scores (Mean ± SD)” value ([3]; 10 mg/kg/day oral) of the same compound?
Answer: 1.71 ± 0.719

Question: And the “Heart protection (left ventricular wall thickness)” value ([3]; compared with the model group)?
Answer: significantly decreased the left ventricular wall thickness

Question: What about the “Kidney protection (kidney injury score)” value ([3]; treatment groups vs model group, listed as Crystal Form I of the present invention) of the same compound?
Answer: remarkable prevention from the increase in the kidney injury score; also recorded: kidney injury protection

Question: With N#Cc1ccc(N2N=C3c4ccc(C(=O)N5CCC(O)CC5)nc4CC[C@@H]3[C@@H]2C2CCCC2)cc1Cl [Crystal Form II, 2-chloro-4-[(3S,3aR)-3-cyclopentyl-7-(4-hydroxypiperidin-1-carbonyl)-3,3a,4,5-tetrahydro-2H-pyrazolo[3,4-f]quinolin-2-yl]benzonitrile] as the compound, how does the “Stability compared with the amorphous form” value [4] read?
Answer: superior to the amorphous form in the stability

Question: What about the “Content of the compound represented” value [4, 6] of the same compound?
Answer: 96.2%

Question: And the “Content of the relevant substance” value [4, 6]?
Answer: 2.8%

Question: And the “Content of the compound represented” value [4, 8]?
Answer: 97.1%

Question: What about the “Content of the relevant substance” value [4, 8] of the same compound?
Answer: 2.7%

Question: And the “Content of the compound represented” value ([4]; 5000 Lx ± 500 Lx, Day 10)?
Answer: 95.5%

Question: What about the “Content of the relevant substance” value ([4]; 5000 Lx ± 500 Lx, Day 10) of the same compound?
Answer: 2.8%

Question: What about the “Content of the compound represented” value ([4]; Day 0) of the same compound?
Answer: 96.2%

Question: What about the “Content of the relevant substance” value ([4]; Day 0) of the same compound?
Answer: 2.6%

Question: What about the “Content of the compound represented” value ([4]; RH90% ± 5%, 25° C., Day 10) of the same compound?
Answer: 96.9%

Question: And the “Content of the relevant substance” value ([4]; RH90% ± 5%, 25° C., Day 10)?
Answer: 2.6%

Question: What about the “Change of contents of the relevant substance and the compound represented by formula (1)” value [4, 9] of the same compound?
Answer: substantially did not change

Source: patent US9809589B2, “Crystal form of compound used as mineralocorticoid receptor antagonist and preparation method therefor” (KBP BIOSCIENCES CO., LTD., priority 2012, dated 2017)
